Where two headings read alike, the source gives them in different places.
What was measured:
[1] = Preliminary toxicity profile, 25 mg/kg PO gavage for 14 days; conditions: for ALP (alkaline phosphatase) / ALT (alanine transaminase) / AST (aspartate transaminase): in U/L (unit assumed); for Weight: in g (unit assumed)
FOXA1 mRNA = FOXA1 mRNA expression in KPC tumors (RNA-seq, qRT-PCR); format: in vivo, KPC mice; conditions: vs intratumor exposure
Procedure: Pancreas cancer tissues samples or adjacent, uninvolved normal pancreas from vehicle or metarrestin-treated KPC animals collected at 0, 3, and 9 h after last dose of 25 mg/kg metarrestin were homogenized in PureLink Lysis Buffer (PureLink RNA Mini Kit, ThermoFisher Scientific Waltham, MA) at 4 °C using a TissueLyser II bead mill (Qiagen, Valencia, CA, manufactured by Retsch, Newtown, PA). Total RNA was isolated using the Life Technologies PureLink® RNA Mini Kit, quantified on a NanoDrop 1000 spectrophotometer (ThermoFisher Scientific, Waltham, MA). […]
Total RNA libraries were prepared using the Illumina TruSeq® Stranded Total RNA LT (with Ribo-Zero™Human/Mouse/Rat) kit according the manufacturer’s instructions. […] Sequencing output ranged from 89 to 132 million reads per sample. Adapter trimming and base filtering was done using Trimmomatic software version 0.3, and the trimmed reads were aligned to mouse reference genome (GRCm38/mm10) and Ensembl annotation (version 70) using TopHat2 version 2.0.8.
A total of 450 ng of total RNA was used for single-strand complementary DNA synthesis using a SuperScript III First-Strand kit (Invitrogen, Carlsbad, CA). […] Reaction products were read in a Bio-Rad CFX96 Touch real-time PCR detection system (Bio-Rad Laboratories, Hercules, CA). […]

[2] = Steady-state PK in KPC mice fed metarrestin-infused chow; format: in vivo; conditions: for Kp / AUC0-24hr Ratio (Tissue/Plasma): 10 mg/kg/day; for Kp / Cmax / Tmax / AUC0-24hr Ratio (Tissue/Plasma): day 10, chow; for Kp: read-out: AUC0-24hr Ratio (Tissue/Plasma); for concentration at 0 h / concentration at 3 h / concentration at 6 h / concentration at 9 h / concentration at 12 h / concentration at 15 h / concentration at 24 h: day 10, 10 mg/kg/day (70 ppm) chow; for Cmax / Tmax: po
[3] = females, 25 mg/kg, 14 days, in g/dL (unit assumed)
[4] = females, N=10, 25 mg/kg, number of animals
[5] = males, N=10, 25 mg/kg, number of animals
[6] = KPC, mouse, plasma, oral, read-out: Plasma concentration
[7] = KPC, mouse, liver, target dose 10 mg/kg/day
[8] = KPC, mouse, plasma, target dose 10 mg/kg/day
[9] = KPC, mouse, spleen, target dose 10 mg/kg/day
[10] = KPC, mouse, tumor, target dose 10 mg/kg/day
[11] = KPC, mouse, tumor, oral, read-out: Tumor concentration

N=c1c2c(-c3ccccc3)c(-c3ccccc3)n(Cc3ccccc3)c2ncn1[C@H]1CC[C@H](O)CC1 [metarrestin, Trans-4-(7-benzyl-4-imino-5,6-diphenyl-4,7-dihydro-3H-pyrrolo[2,3-d]pyrimidin-3-yl) cyclohexanol]
body weight, hypoactivity, liver function tests compared to vehicle controls ([1]; daily 25 mg/kg by oral gavage for 14 days): not associated with any change in body weight, hypoactivity, or change in liver function tests | CHOL (cholesterol) ([1]; females, 25 mg/kg, 14 days): 123 ± 18.4 | LD (lactate dehydrogenase) ([1]; females, 25 mg/kg, 14 days): 495 ± 89.7 | ALP (alkaline phosphatase) ([1]; females, 25 mg/kg, 14 days): 136 ± 13.8 | ALT (alanine transaminase) ([1]; females, 25 mg/kg, 14 days): 100 ± 47.6 | AST (aspartate transaminase) ([1]; females, 25 mg/kg, 14 days): 100 ± 28.3 | GLOB (globulin) [1, 3]: 2.1 ± 0.13 | TP (total protein) [1, 3]: 5.2 ± 0.21 | Weight ([1]; females, Day 1, 25 mg/kg): 23.1 ± 1.55 | Weight Change ([1]; females, Day 1 to 4, 25 mg/kg): 0.0 ± 0.80 | Weight Change ([1]; females, Day 1 to 15, 25 mg/kg): 2.7 ± 1.04 | Weight Change ([1]; females, Day 4 to 7, 25 mg/kg): 1.2 ±0.67 | Weight ([1]; females, Day 7, 25 mg/kg): 24.3 ± 1.32 | Weight ([1]; females, Day 15, 25 mg/kg): 25.8 ± 1.70 | Death [1, 4]: 0 | Rough coat [1, 4]: 0 | Scant feces [1, 4]: 0 | CRE (creatinine) ([1]; males, 25 mg/kg, 14 days): 0.09 ± 0.015 | P04 (phosphorus) ([1]; males, 25 mg/kg, 14 days): 10.2 ± 0.50 | ALP (alkaline phosphatase) ([1]; males, 25 mg/kg, 14 days): 84 ± 13.5 | ALT (alanine transaminase) ([1]; males, 25 mg/kg, 14 days): 137 ± 67.4 | AST (aspartate transaminase) ([1]; males, 25 mg/kg, 14 days): 88 ± 24.3 | K (potassium) ([1]; males, 25 mg/kg, 14 days, in mmol/L (unit assumed)): 7.3 ± 0.21 | Weight ([1]; males, Day 1, 25 mg/kg): 31.4 ± 1.38 | Weight Change ([1]; males, Day 1 to 4, 25 mg/kg): 1.1 ± 0.90 | Weight Change ([1]; males, Day 1 to 15, 25 mg/kg): 3.1 ± 1.51 | Weight Change ([1]; males, Day 4 to 7, 25 mg/kg): 0.9 ± 0.59 | Weight ([1]; males, Day 7, 25 mg/kg): 33.3 ± 2.02 | Weight ([1]; males, Day 15, 25 mg/kg): 34.4 ± 2.33 | Cold to touch [1, 5]: 0 | Death [1, 5]: 0 | Hypoactivity [1, 5]: 0 | Rough coat [1, 5]: 6 | Scant feces [1, 5]: 0 | Thin [1, 5]: 0 | FOXA1 mRNA expression in KPC tumors (FOXA1 mRNA): Dose-dependent normalization | intratumor AUC0–24h ([2]; 10 mg/kg PO chow): 80,600 h ng/mL | intratumor AUC0–24h ([2]; 10 mg/kg PO steady-state chow): 96,100 h ng/mL | intratumor AUC levels ([2]; 10 mg/kg dosing with solid or liquid formulations): > 80,000 ng h/mL | Kp ([2]; KPC, mouse, liver, oral, liver/plasma, target dose 10 mg/kg/day): > 20 | AUC(0-t) ([2]; KPC, mouse, oral, plasma, day 10, chow 70 ppm, target dose 10 mg/kg/day, read-out: AUC0-24hr): 4160 ng·h/mL | Kp ([2]; KPC, mouse, pancreatic tumor, oral, tumor/plasma, target dose 10 mg/kg/day): > 20 | concentration at 0 h [2, 6]: 0.46 µM | concentration at 3 h [2, 6]: 0.33 µM | concentration at 6 h [2, 6]: 0.3 µM | concentration at 9 h [2, 6]: 0.5 µM | concentration at 12 h [2, 6]: 0.43 µM | concentration at 15 h [2, 6]: 0.36 µM | concentration at 24 h [2, 6]: 0.27 µM | Cmax [2, 7]: 7250 ng/mL | Tmax [2, 7]: 12 h | Cmax [2, 8]: 237 ng/mL | Tmax [2, 8]: 9 h | Cmax [2, 9]: 5840 ng/mL | Tmax [2, 9]: 15 h | Cmax [2, 10]: 5100 ng/mL | Tmax [2, 10]: 9 h | Kp ([2]; KPC, mouse, spleen, oral, spleen/plasma, target dose 10 mg/kg/day): > 20 | concentration at 0 h [2, 11]: 7.9 µM | concentration at 3 h [2, 11]: 10.3 µM | concentration at 6 h [2, 11]: 8 µM | concentration at 9 h [2, 11]: 10.8 µM | concentration at 12 h [2, 11]: 10.7 µM | concentration at 15 h [2, 11]: 7.2 µM | concentration at 24 h [2, 11]: 6.7 µM | AUC0-24hr Ratio (Tissue/Plasma) ([2]; liver/plasma, target dose 10 mg/kg/day): 37 | AUC0-24hr ([2]; liver, day 10, chow 70 ppm, target dose 10 mg/kg/day): 153000 ng●hr/mL | AUC0-24hr Ratio (Tissue/Plasma) ([2]; spleen/plasma, target dose 10 mg/kg/day): 26 | AUC0-24hr ([2]; spleen, day 10, chow 70 ppm, target dose 10 mg/kg/day): 109000 ng●hr/mL | AUC0-24hr Ratio (Tissue/Plasma) ([2]; tumor/plasma, target dose 10 mg/kg/day): 23 | AUC0-24hr ([2]; tumor, day 10, chow 70 ppm, target dose 10 mg/kg/day): 96100 ng●hr/mL

From paper PMC6267684, “Pharmacokinetic evaluation of the PNC disassembler metarrestin in wild-type and Pdx1-Cre;LSL-Kras^G12D/+;Tp53^R172H/+ (KPC) mice, a genetically engineered model of pancreatic cancer” (Cancer Chemotherapy and Pharmacology, 2018)
